How the values were obtained:
[1] = PET imaging of [11C]rhodamine-123 in rats; format: in vivo, rat
[2] = cited from earlier work
[3] = mouse; cited from earlier work
P-gp = details: mouse, not told, iv; cited from earlier work

CN/C(=N/CCSCc1nc[nH]c1C)NC#N [cimetidine]
inhibition of OCT in kidney in vivo ([1]; 30 mg/kg i.v., 30 min before radiotracer, rats): effective inhibitor of OCT in vivo

CNC(=O)C(CCN1CCC(O)(c2ccc(Cl)cc2)CC1)(c1ccccc1)c1ccccc1 [dLop, desmethyl-loperamide]
logD [2]: 2.60 | pKa [2]: 7.2–7.3

COC(=O)c1ccccc1-c1c2ccc(=N)cc-2oc2cc(N)ccc12.Cl [rhodamine-123]
peak radioactivity in liver (PET) ([1]; DCPQ-pretreated versus untreated rats): greater peak radioactivity in liver | Plasma free fraction [3]: 0.23 ± 0.04 | brain concentration, P-gp knockout (mdr1a(−/−)) versus wild-type mice (P-gp): about 4 fold

From publication PMC3478417 (Nuclear medicine and biology, 2012)
